# Where two headings read alike, the source gives them in different places.
# What was measured:
# NSCLC cancer patients [1] = assay: Response of NSCLC patients to TARCEVA therapy by 5B7/3C6 category (Example 7); format: in vivo, human; settings: 150 mg/day orally
# Description: (§1) Tissue arrays containing biopsy samples from at least 100 NSCLC cancer patients are obtained. Each patient is treated with TARCEVA™ (EGFR inhibitor) therapy with a dosage of 150 mg/day given orally. Each patient has post-therapy follow-up for up to 5 years. Each biopsy sample is fixed in 10% NBF and paraffin embedded. Five (5) micron sections of each biopsy sample are cut and arrayed on positively charged glass slides. The slides are stained with an RD-binding molecule (e.g., clone 5B7) and an ED-binding molecule (e.g., clone 3C6) according to the protocols in Example 2. The resulting stained array slides are scored by light microscopy by a pathologist according to the following criteria:
# (§2) The score for each case is recorded in a database comparing the score for each binding molecule (e.g., 5B7 or 3C6). Approximately 65% of cases are expected to fall into category 1, 19% in category 2, <1% in category 3 and 15% in category 4. Patient outcome is directly related to the scoring category as indicated in Table 2 for an ID-based therapy.
# NSCLC cancer patients [2] = assay: Response of NSCLC patients to IRESSA therapy by 5B7/3C6 category (Example 6); format: in vivo, human; settings: 250 mg/day orally
# Description: as §1, with “IRESSA™ (EGFR-inhibitor)” for “TARCEVA™ (EGFR inhibitor)”, “250” for “150”
# as §2
# HCC cancer patients = assay: Response of HCC patients to IRESSA therapy by 5B7/3C6 category (Example 11); format: in vivo, human; settings: 200-500 mg/day orally
# Description: Tissue arrays containing biopsy samples from at least 100 HCC cancer patients are obtained (see, for example, samples collected in JS 0414, “A Pilot Study of Adjuvant Therapy of Gefitinib (Iressa, ZD1839) in Patients with Resectable Hepatocellular Carcinoma”, ClinicalTrials.gov Identifier No. NCT00228501). Each patient is treated with IRESSA™ (EGFR-inhibitor) therapy with a dosage of 200-500 mg/day given orally. Each patient has post-therapy follow-up for at least 12 months. Each biopsy sample is fixed in a standard fixative (e.g., 10% NBF) and paraffin embedded. Sections of each biopsy sample (e.g., 5 μm thick) are cut and arrayed on positively charged glass slides. The slides are stained with an RD-binding molecule (e.g., clone 5B7) and an ED-binding molecule (e.g., clone 3C6) according to the protocols in Example 2. The resulting stained array slides are scored by light microscopy by a pathologist according to the following criteria:
# The score for each case is recorded in a database comparing the score for each binding molecule (e.g., 5B7 or 3C6). Approximately 60% of cases are expected to fall into category 1, 13% in category 2, 5% in category 3 and 22% in category 4. Patient outcome is directly related to the scoring category as indicated in Table 2 for an ID-based therapy.
# [3] = system: non-small cell lung cancer; settings: cited from earlier work
# breast cancer patients = assay: Response of breast cancer patients to lapatinib therapy by 5B7/3C6 category (Example 10); format: in vivo, human; settings: 1250-1500 mg/day orally
# Description: Tissue arrays containing biopsy samples from at least 100 breast cancer patients are obtained. Each patient is treated with lapatinib (TYKERB™) (HER1 (EGFR)/HER2-inhibitor) with a dosage of 1250-1500 mg/day given orally. Each patient has post-therapy follow-up for at least 20 months. Each biopsy sample is fixed in a standard fixative and paraffin embedded. Sections of each biopsy sample (e.g., 5 μm thick) are cut and arrayed on positively charged glass slides. The slides are stained with an RD-binding molecule (e.g., clone 5B7) and an ED-binding molecule (e.g., clone 3C6) according to the protocols in Example 2. The resulting stained array slides are scored by light microscopy by a pathologist according to the following criteria:
# The score for each case is recorded in a database comparing the score for each binding molecule (e.g., 5B7 or 3C6). Approximately 20% of cases are expected to fall into category 1, 16% in category 2, 3% in category 3 and 61% in category 4. Patient outcome is directly related to the scoring category as indicated in Table 2 for an ID-based therapy.
# clone 5B7 = assay: Peptide inhibition study (epitope mapping) on EGFR-positive lung squamous cell carcinoma; format: binding; settings: 1000-fold molar excess of peptide, pre-incubated 1 hour at room temperature
# Source text: The epitope for the EGFR regulatory-domain-specific monoclonal antibody, clone 5B7, was mapped by peptide inhibition studies. Because the L2G Peptide was used as the immunogen and was used to screen for positive clones, it was known that the 5B7 epitope must be within that 19-amino acid sequence (see SEQ ID NO: 2). The L2G Peptide, a peptide containing the 13 C-terminal amino acid residues of the L2G Peptide, and a peptide containing the six N-terminal amino acid residues of the L2G Peptide plus three additional N-terminal residues (i.e., QIS) corresponding to the respective positions in the human EGFR sequence. The peptides were synthesized by Genemed Synthesis, Inc. (South San Francisco, Calif.).
# A known EGFR-positive lung squamous cell carcinoma was chosen for the peptide inhibition study. The 5B7 antibody was pre-incubated with each peptide for 1 hour at room temperature before application to the tissue. A 1000-fold molar excess of peptide compared to antibody was used.
# [4] = NSCLC patients in categories 1 and 3
# [5] = NSCLC patients in categories 2 and 4
compound,measurement,setting,value
C#Cc1cccc(Nc2ncnc3cc(OCCOC)c(OCCOC)cc23)c1 [erlotinib],patient response to therapy,NSCLC cancer patients [1]; [4],objective response
same,patient response to therapy,NSCLC cancer patients [1]; [5],not significantly respond
COc1cc2ncnc(Nc3ccc(F)c(Cl)c3)c2cc1OCCCN1CCOCC1 [gefitinib],patient response to therapy,NSCLC cancer patients [2]; [4],objective response
same,patient response to therapy,NSCLC cancer patients [2]; [5],not significantly respond
same,patient response to therapy,HCC cancer patients; HCC patients in categories 1 and 3,objective response
same,patient response to therapy,HCC cancer patients; HCC patients in categories 2 and 4,not significantly respond
same,NSCLC patients who responded to the drug,[3]; 250 gefitinib per day,about 10%
same,NSCLC patients who responded to the drug,[3]; 500 gefitinib per day,about 20%
CS(=O)(=O)CCNCc1ccc(-c2ccc3ncnc(Nc4ccc(OCc5cccc(F)c5)c(Cl)c4)c3c2)o1 [lapatinib],patient response to therapy,breast cancer patients; breast cancer patients in categories 1 and 3,objective response
same,patient response to therapy,breast cancer patients; breast cancer patients in categories 2 and 4,not significantly respond
LDNPDYQQDFFPKEAKPNG (listed as Homo sapiens) [Peptide 3],inhibition of 5B7 binding to tissue,clone 5B7,completely inhibited
Peptide 1: amino acids 1164-1175 of SEQ ID NO: 1 (QISLDNPDYQQD; listed as Homo sapiens),inhibition of 5B7 binding to tissue,clone 5B7,partial inhibition
Peptide 2: amino acids 7-19 of SEQ ID NO: 2; 13 C-terminal amino acid residues of the L2G Peptide (QQDFFPKEAKPNG; listed as Homo sapiens),inhibition of 5B7 binding to tissue,clone 5B7,complete inhibition

# Source: US8329421B2, “Methods of predicting response of a neoplasm to an EGFR inhibitor and detecting interactions between EGFR and an EGFR regulatory protein” (Ventana Medical Systems, Inc., priority 2007, dated 2012)
